Marks after values point to notes of the source that are not given here.
How the values were obtained:
[1] = tested on: rats with spontaneous hypertension (SHR); experiment: myocardial remodeling and blood pressure in rats with spontaneous hypertension (SHR); type: in vivo, rat; settings: losartan 6 mg/kg intragastric qd
Protocol: 1. Thirty 13-week-old rats with spontaneous hypertension (SHR, purchased from Beijing Vital River Laboratory Animal Technology Co. Ltd., Beijing) were selected and randomly assigned into five groups with 6 rats per group:
SHR model group (Vehicle): 0.9% physiological saline, intraperitoneal injection at a dosage of 5 ml/kg, bid.
Positive control group (losartan): potassium losartan at a dosage of 6 mg/kg, intragastric administration, qd.
The pentadecapeptide group: administration of the pentadecapeptide at a dosage of 30 μg/kg by intraperitoneal injection, bid.
The heptacosapeptide group: administration of the heptacosapeptide at a dosage of 30 μg/kg by intraperitoneal injection, bid.
The pantapentacontapeptide group: administration of the pantapentacontapeptide at a dosage of 30 μg/kg by intraperitoneal injection, bid.
Six of INKY (Wistar-Kyoto) rats (purchased from Center for Experimental Animals, Third Military Medical University) were additionally selected as the normal control.
2. Intervention with the drug was performed consecutively for eight weeks (from Week 14 to Week 21). The body weights of all the tested rats were obtained once every two weeks, and the administration dosage was adjustedbased on body weights.

[2] = clinical dosage converted into the dosage in the mouse; cited from earlier work
[3] = echocardiography, SHR, x ± s, n = 6

## CCCCc1nc(Cl)c(CO)n1Cc1ccc(-c2ccccc2-c2nn[nH]n2)cc1 [Losartan, potassium losartan]
[1]; 0 w, SHR, x ± s, n = 6
  Systolic blood pressure of artery: 178.3 ± 2.24 mmHg
[1]; 2 w, SHR, x ± s, n = 6
  Systolic blood pressure of artery: 165.1 ± 4.80 mmHg
[1]; 4 w, SHR, x ± s, n = 6
  Systolic blood pressure of artery: 177.1 ± 8.27 mmHg
[1]; 6 w, SHR, x ± s, n = 6
  Systolic blood pressure of artery: 178.3 ± 6.23 mmHg
[1]; 8 w, SHR, x ± s, n = 6
  Systolic blood pressure of artery: 172.6 ± 4.82 mmHg
[1]; [3]
  EF (ejection fraction): 88.8 ± 2.62%
  FS (shortening fraction): 53.6 ± 3.57%
  IVST (intervertricular septum thickness): 1.87 ± 0.18 mm
  LAD (left atrium sinistrum diameter): 3.25 ± 0.23 mm
  LVEDD (left ventricular end diastolic diameter): 5.05 ± 0.42 mm
  LVESD: 2.33 ± 0.18 mm
  PWT (left ventricular posterior wall thickness): 2.25 ± 0.21 mm
  SV (stroke volume): 0.21 ± 0.04 mL
[1]; eight weeks, SHR, x ± s, n = 6
  HI: 3.48 ± 0.05 mg/g
  HW: 1003 ± 16 mg
  LVI: 2.74 ± 0.28 mg/g
  LVW: 789 ± 88 mg
[1]; FIG. 2
  morphology of the cardiac muscle tissues, light microscope: Pathological changes are somewhat improved
[1]; FIG. 5
  ultrastructure of the SHR cardiocyte, transmission electron microscope: morphology of the cellular nucleus is essentially normal and somewhat irregular
[1]; P<0.01
  CSA in comparison with the model group: significantly decreased
[1]; SHR, x ± s, n = 6
  CSA (cross section area of the cardiocyte): 335 ± 20** μm^2
  TDM (trans diameter of the cardiocyte): 13.83 ± 2.54 μm
[2]
  ratio of mouse LD50/routine dosage: 349
